The source of these data is patent publication US8722096B2, “Lipoic acid pellets” (Aptalis Pharma Limited, priority 2006, dated 2014).

The conditions of data set [1]: gives polymerization products; cited from earlier work.
A short description of data set [2]: Stability of lipoic acid in ethanol/phosphate buffer solutions. In kind it is physicochemical. The note with it: ethanol/phosphate buffer 50 mM pH 6.8, 80:20 to 90:10; room temperature, protected from light. The protocol: In case the application in the solvent form is chosen, for example ethanol, acetone or other solvents or their mixtures thereof can be used. Also other mixtures of organic solvents with buffer solutions can be used, for example mixtures of ethanol and phosphate buffers. These mixtures can be composed by ethanol/phosphate buffer 50 mM pH:6.8 in proportions ranging from 80:20 to 90:10. In these solutions, lipoic acid is stable for at least 24 hours if stored at room temperature and protected from light. Lipoic acid is dissolved in these solvents at an optimal concentration ranging from 20 to 30% w/w, depending on the type of solvent or solvent mixture used. Application of the lipoic acid solution on the core is performed by wetting and subsequent evaporation of the solvent in presence of air at a temperature lower than 40° C., preferably ranging between 36 and 38° C. This procedure yields active cores with a low content of residual solvents.

With `O=C(O)CCCCC1CCSS1` (centres unmarked) [lipoic acid, 1,2-dithiolan-3-pentanoic acid], in data set [1], the “stability under environmental conditions” value is “unstable under various environmental conditions”. In addition, the “time for which lipoic acid is stable in solution” value in data set [2] is on record as “at least 24 hours”.
